Laboratory results from patent publication US20030124151A1, “Pamidronate solution” (Mayne Pharma Pty Ltd., priority 2000, published 2003).

Legend:
[1] = cited from earlier work
[2] = pH of one percent solution in distilled water; assay type: physicochemical

Row | Compound | Solubility in water [1] | pH of solution [2]
1 | NCCC(O)(P(=O)(O)O)P(=O)(O)O [Pamidronic acid, (3 amino-1-hydroxypropylidene) bisphosphonic acid] | practically insoluble | –
2 | NCCC(O)(P(=O)(O)O)P(=O)(O)O [pamidronate disodium] | – | approximately 8.3
